Molecules are shown by their SMILES. “Also recorded” adds a separate entry of the source.

Consider 3 compounds from patent US20130184330A1, “COMPOSITIONS AND METHODS FOR INDUCING CANCER CELL DEATH” (UNIVERSITY OF MIAMI, priority 2010, published 2013).

In series [1] the test system is eif2-α and GCN2 phosphorylation in PERK−/− MEFs. Kind of series: Western blot of phosphorylated eif2-α and GCN2 in PERK knock-out MEFs. It is filed as cell-based, mouse. The source says:
(§1) Cell types: Human tumor cell lines 1469 (pancreatic) and MDA-MB-435 (melanoma) were purchased from American Type Culture Collection (ATCC), and maintained in DMEM with 1 g/l of glucose (Mediatech). Mouse embryonic fibroblasts (MEF) that are PERK knock-out and its wild type pair were a kind gift from Dr. Mark Lehrman (University of Southwestern Texas, Dallas, Tex.). MEFs that have wild type eif2-α and eif2-α with its serine51 mutated to alanine were a kind gift from Dr. Glen Barber (University of Miami, Miami, Fla.). All MEFS were maintained in RPMI with 2 g/l of glucose (Invitrogen). All culture media were supplemented with 10% fetal bovine serum (FBS) (Invitrogen), penicillin/streptomycin (Invitrogen) and 0.1% Plasmocin (only for cell passage) (InvivoGen) unless otherwise specified. Cells were grown under 5% CO2 at 37° C.
(§2) Immunoblotting analysis: Cells were seeded onto six-well plates and cultured for 18-22 h to reach 40-70% confluence. Following drug exposure for the indicated times, cells were harvested and lysed with the lysis buffer (100 mM Tris-HCl at pH 7.4, 1% SDS, phosphatase inhibitor cocktail 2 and protease inhibitor cocktail from Sigma-Aldrich). Protein concentrations of each sample were determined using a Micro BCA Protein Assay Kit (Thermo Scientific) according to the manufacturer's directions, and equal amounts of proteins were loaded onto 4-15% Tris-HCl gradient gels (except 12% gels for siRNA experiments) (Bio-Rad). After SDS-PAGE, proteins were transferred onto a polyvinylidene fluoride (PVDF) membrane (Millipore), blocked with 5% milk and probed with corresponding primary antibodies overnight (except 1 h for β-actin). The membrane was washed and probed with secondary antibodies for 1 h. Membrane was then incubated with SuperSignal West Pico or Femto Chemiluminescent Substrate (Thermo Scientific) and signals were visualized on Blue Lite Autorad Films (ISCBioExpress). All primary antibodies were used at 1:1000 dilution except for Atg7 (1:300) and β-actin (1:10000), and the secondary antibodies were used at 1:10000. Representative blots from at least three independent experiments were shown unless otherwise indicated.
Background: Immunoblotting shows a protein as a band on a membrane.

Series [2] relates to MEF eif2a A/A. Put plainly: Cell death analysis in MEFs with non-phosphorylatable eif2-α. The series is classed as cell-based, mouse. The conditions noted are these: 48 hours.
Excerpt: as §1
(§3) Growth inhibition and Cytotoxicity assays: Cells were seeded onto 24-well plates and cultured for 18-22 h. After drug exposure for 48 hours, attached cells and their respective culture media were collected and centrifuged at 400 g for 5 min. The pellets were then resuspended in Hanks Balanced Salt Solution (HBSS) (Mediatech) and analyzed with Vi-Cell cell viability analyzer (Beckman Coulter) based on trypan blue exclusion. Results were shown as the percentages of dead cells out of total cells counted. […]

For series [3], the system named is PERK+/+ MEFs. Kind of series: Cell death analysis in wild type MEFs. The conditions noted are these: similar conditions as for PERK−/− cells. It is filed as cell-based, mouse.
Excerpt: as §1, §3

For series [4], the system named is PERK−/− MEFs. Put plainly: Cell death analysis in PERK knock-out MEFs. It is filed as cell-based, mouse.
Excerpt: as §1
Growth inhibition and Cytotoxicity assays: Cells were seeded onto 24-well plates and cultured for 18-22 h. After drug exposure for 48 hours, attached cells and their respective culture media were collected and centrifuged at 400 g for 5 min. The pellets were then resuspended in Hanks Balanced Salt Solution (HBSS) (Mediatech) and analyzed with Vi-Cell cell viability analyzer (Beckman Coulter) based on trypan blue exclusion. Results were shown as the percentages of dead cells out of total cells counted. Data were the averages of triplicate samples +SD from one representative experiment out of at least three independent analyses unless otherwise indicated.
(§4) siRNA transfection: Cells were seeded into 25-cm^2 flasks and cultured for 24 h to reach ˜60% confluence using antibiotics-free media. Then, cells were transfected with anti-Luc siRNA-1 (targeting luciiferase) or ON-TARGETplus SMARTpool siRNA against PERK or GCN2 using the DharmaFECT siRNA transfection reagent #2 (Dharmacon). Twenty-four hours after transfection, cells were collected and re-seeded onto 6-well or 24-well plates and drug-treated for immunoblotting or cytotoxicity analyses, respectively.

Series [5] concerns patients with various tumor types. The conditions noted are these: in combination with taxotere; cited from earlier work.
Series [6] relates to AMPK and eif2-α phosphorylation, GRP78 and CHOP expression in MDA-MB-435 cells. Put plainly: Western blot of ATP and ER stress/UPR markers. It is filed as cell-based, human.
Excerpt: as §1, §2, §4

The subject of series [7] is MDA-MB-435 cells. Put plainly: Growth inhibition assay, Vi-Cell trypan blue exclusion. The series is classed as cell-based, human. Particulars: 48 hours, equivalent doses, i.e. 0.3 mM and 2 mM.
Excerpt: as §1, §3

Consider `O=CC[C@@H](O)[C@H](O)[C@H](O)CO` [2-DG, 2-Deoxy-D-glucose], for which the “GCN2 phosphorylation induced by 2-DG” value in series [1] (2-DG 2 and 8 mM, 4 mM glutamine, 24 hours) is recorded as “induces phosphorylation of GCN2”. In addition, the “phosphorylated eif2-α levels in PERK−/− vs PERK+/+ cells” value in series [1] (as a function of time of treatment with 2-DG) is listed as “significantly lower levels”. Also, in series [2], the “sensitivity of eif2-α mutant MEFs to toxic effects of 2-DG vs parental” value is listed as “more sensitive”. In addition, the “2-DG toxicity in PERK+/+ cells with siRNA against GCN2 or increased glutamine” value in series [3] is recorded as “not increased”. Moreover, in series [4] (48 hours), the “toxicity of 2-DG in PERK−/− vs PERK+/+ MEFs” value is reported as “more toxic; also recorded: more sensitive”. For the same compound, the “tolerability in phase I trial” value in series [5] is on record as “well-tolerated”. For the same compound, in series [6] (2-DG 0.2 mM and 2 mM, 24 hours), the eIF2a phosphorylation result is “phosphorylated (inhibited)”. Moreover, in series [6] (2-DG 0.2 mM, 24 hours), the AMPK phosphorylation entry is reported as “phosphorylated”. Further, the “levels of UPR chaperone GRP 78” value in series [6] (2-DG, aerobic conditions) was “increased levels”.
As for `O=C[C@H](F)[C@@H](O)[C@H](O)[C@H](O)CO` [2-FDG, 2-fluoro-deoxy-D-glucose], in series [4] (doses that do not induce ER stress but block glycolysis, 48 hours), the “toxicity of 2-FDG in PERK−/− cells” value is recorded as “very little or no toxicity”. Also, in series [6] (equivalent doses, 0.3 mM and 2 mM), the “induction of UPR marker GRP 78 compared with 2-DG” value is on record as “less induction”. The “growth inhibitory activity compared with 2-DG” value in series [7] was “significantly less growth inhibitory activity than 2-DG”.
As to `NC(=O)CC[C@H](N)C(=O)O` [glutamine], the “eif2-α phosphorylation with exogenous glutamine” value in series [1] (2-DG treated PERK−/− cells, exogenous glutamine) was “reduces”. Moreover, the “2-DG induced GCN2 phosphorylation with exogenous glutamine” value in series [1] (glutamine increased to 8 mM) is on record as “attenuated”. In addition, the “2-DG toxicity in PERK−/− cells in 8 mM vs 4 mM glutamine” value in series [4] (8 mM glutamine, 2-DG 48 hours) is reported as “increased toxicity”.
